# Measured values reported in PubChem BioAssay (NCI).
#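 These data come from cells grown in 96-well plates and exposed to compound for 48 hours at five concentrations. Abbreviation: GI50, concentration required for 50% inhibition of growth. At the TGI there is no net growth.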
# Tests used:
# Assay in all cases: inhibition of tumour cell growth, NCI panel, 48 h
# [1] = tested on: 786-0 renal
# [2] = tested on: A498 renal
# [3] = tested on: A549 NSCLC
# [4] = tested on: ACHN renal
# [5] = tested on: BT-549 breast
# [6] = tested on: CAKI-1 renal
# [7] = tested on: CCRF-CEM leukemia
# [8] = tested on: COLO 205 colon
# [9] = tested on: DU-145 prostate
# [10] = tested on: EKVX NSCLC
# [11] = tested on: HCC-2998 colon
# [12] = tested on: HCT-116 colon
# [13] = tested on: HCT-15 colon
# [14] = tested on: HL-60(TB) leukemia
# [15] = tested on: HOP-62 NSCLC
# [16] = tested on: HOP-92 NSCLC
# [17] = tested on: HS 578T breast
# [18] = tested on: HT29 colon
# [19] = tested on: IGROV1 ovarian
# [20] = tested on: K-562 leukemia
# [21] = tested on: KM12 colon
# [22] = tested on: LOX IMVI melanoma
# [23] = tested on: M14 melanoma
# [24] = tested on: MALME-3M melanoma
# [25] = tested on: MCF7 breast
# [26] = tested on: MDA-MB-231 breast
# [27] = tested on: MDA-MB-435
# [28] = tested on: MDA-MB-468 breast
# [29] = tested on: MOLT-4 leukemia
# [30] = tested on: NCI-H226 lung
smiles,measurement,setting,value
N#Cc1c(NC(=O)c2ccc(C(F)(F)F)cc2C(F)(F)F)sc2c1CCC(=O)C2,GI50,[1],442 nM
same,TGI,[1],4080 nM
same,GI50,[2],13000 nM
same,TGI,[2],28100 nM
same,GI50,[3],3290 nM
same,TGI,[3],30000 nM
same,GI50,[4],331 nM
same,TGI,[4],1180 nM
same,GI50,[5],309 nM
same,TGI,[5],1110 nM
same,GI50,[6],610 nM
same,TGI,[6],2120 nM
same,GI50,[7],308 nM
same,TGI,[7],3200 nM
same,GI50,[8],1310 nM
same,TGI,[8],2720 nM
same,GI50,[9],3720 nM
same,TGI,[9],14900 nM
same,GI50,[10],1650 nM
same,TGI,[10],7840 nM
same,GI50,[11],1660 nM
same,TGI,[11],5600 nM
same,GI50,[12],345 nM
same,TGI,[12],6640 nM
same,GI50,[13],335 nM
same,TGI,[13],1390 nM
same,GI50,[14],235 nM
same,TGI,[14],3270 nM
same,GI50,[15],3450 nM
same,TGI,[15],14000 nM
same,GI50,[16],234 nM
same,TGI,[16],770 nM
same,GI50,[17],999 nM
same,TGI,[17],8550 nM
same,GI50,[18],542 nM
same,TGI,[18],2950 nM
same,GI50,[19],894 nM
same,TGI,[19],5520 nM
same,GI50,[20],275 nM
same,TGI,[20],> 40200 nM
same,GI50,[21],468 nM
same,TGI,[21],2330 nM
same,GI50,[22],369 nM
same,TGI,[22],2170 nM
same,GI50,[23],901 nM
same,TGI,[23],2840 nM
same,GI50,[24],369 nM
same,TGI,[24],1450 nM
same,GI50,[25],442 nM
same,TGI,[25],10800 nM
same,GI50,[26],769 nM
same,TGI,[26],2390 nM
same,GI50,[27],888 nM
same,TGI,[27],2980 nM
same,GI50,[28],565 nM
same,TGI,[28],1820 nM
same,GI50,[29],386 nM
same,TGI,[29],7210 nM
same,GI50,[30],2240 nM
